Test results as given in US10849907B2, “Imidazopyridine derivatives and the use thereof as medicament” (Boehringer Ingelheim International GmbH, priority 2017, dated 2020).

Experiments:
human MDR1 (P-gp) = biological target: T1, human MDR1 (P-gp) (Homo sapiens, UniProt P08183); experiment: MDCK assay MDR-1 (p-GP): permeability across MDCK-MDR1 monolayers; assay type: in vitro ADME; conditions: for Papp A→B: MDCK-MDR1 monolayers, apical-to-basal, pH 7.4, 1 or 10 μM; for efflux ratio: pH 7.4, MDCK-MDR1, Papp (b-a) divided by Papp (a-b)
T1 construct: expressed in transfected cells; host or cells: MDCKII (Madin-Darby canine kidney) cells
T1 sequence (P08183 whole entry): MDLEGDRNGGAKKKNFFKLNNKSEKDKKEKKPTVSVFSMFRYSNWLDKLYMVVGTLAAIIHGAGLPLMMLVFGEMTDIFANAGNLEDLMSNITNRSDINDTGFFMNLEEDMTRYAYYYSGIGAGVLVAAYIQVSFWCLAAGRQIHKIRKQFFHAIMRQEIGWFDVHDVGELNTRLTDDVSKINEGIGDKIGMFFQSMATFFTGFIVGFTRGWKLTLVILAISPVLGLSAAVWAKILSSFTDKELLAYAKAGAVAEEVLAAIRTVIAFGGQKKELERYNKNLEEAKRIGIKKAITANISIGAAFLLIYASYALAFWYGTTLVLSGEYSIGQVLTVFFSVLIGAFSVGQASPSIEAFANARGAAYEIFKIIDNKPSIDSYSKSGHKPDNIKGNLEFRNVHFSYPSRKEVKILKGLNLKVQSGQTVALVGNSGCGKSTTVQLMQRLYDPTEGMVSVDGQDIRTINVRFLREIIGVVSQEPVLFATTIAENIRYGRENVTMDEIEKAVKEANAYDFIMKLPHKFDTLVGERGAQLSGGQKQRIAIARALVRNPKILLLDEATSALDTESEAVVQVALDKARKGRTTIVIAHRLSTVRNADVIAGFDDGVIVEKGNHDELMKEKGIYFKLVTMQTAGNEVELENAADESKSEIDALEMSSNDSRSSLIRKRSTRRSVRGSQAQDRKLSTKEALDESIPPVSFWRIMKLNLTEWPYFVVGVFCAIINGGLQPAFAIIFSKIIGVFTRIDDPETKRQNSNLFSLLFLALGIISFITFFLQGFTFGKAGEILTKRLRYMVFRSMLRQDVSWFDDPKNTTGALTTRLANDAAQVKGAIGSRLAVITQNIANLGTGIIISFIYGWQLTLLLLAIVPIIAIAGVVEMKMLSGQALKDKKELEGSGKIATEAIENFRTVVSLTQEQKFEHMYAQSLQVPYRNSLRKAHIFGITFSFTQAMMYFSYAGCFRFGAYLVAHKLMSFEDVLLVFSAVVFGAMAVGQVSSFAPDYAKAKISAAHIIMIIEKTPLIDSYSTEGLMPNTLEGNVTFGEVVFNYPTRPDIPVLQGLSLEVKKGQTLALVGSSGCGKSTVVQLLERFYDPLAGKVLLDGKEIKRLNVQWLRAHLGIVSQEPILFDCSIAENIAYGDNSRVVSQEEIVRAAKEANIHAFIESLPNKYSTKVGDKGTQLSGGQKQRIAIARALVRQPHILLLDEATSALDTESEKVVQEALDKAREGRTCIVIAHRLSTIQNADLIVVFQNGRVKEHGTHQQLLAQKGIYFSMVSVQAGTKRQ
Experimental: (§1) The MDCK assays provide information on the potential of a compound to pass the blood brain barrier. Permeability measurements across polarized, confluent MDCK-MDR1 cell monolayers grown on permeable filter supports are used as an in vitro absorption model: apparent permeability coefficients (PE) of the compounds across the MDCK-MDR1 cell monolayers are measured (pH 7.4, 37° C.) in apical-to-basal (AB) and basal-to-apical (BA) transport direction. The AB permeability (PEAB) represents drug absorption from the blood into the brain and the BA permeability (PEBA) drug efflux from the brain back into the blood via both, passive permeability as well as active transport mechanisms mediated by efflux and uptake transporters that are expressed on the MDCK-MDR1 cells, predominantly by the overexpressed human MDR1. Identical or similar permeabilities in both transport directions indicate passive permeation, vectorial permeability points to additional active transport mechanisms. Higher PEBA than PEAB (PEBA/PEAB >5) indicates the involvement of active efflux mediated by MDR1, which might compromise the goal to achieve sufficient brain exposure. Therefore, this assay provides valuable support for selection of compounds applicable for further in vivo testing. High permeability not limited by efflux at the blood brain barrier is a favourable characteristic for compounds that are to be used for drugs acting primarily in the CNS. Similar concepts are applicable to the MDCK BCRP assay and its interpretation; consequently, to ensure high permeability at the blood brain barrier, it is highly preferred to minimize the efflux (efflux <5) at both MDR1 and BCRP transporters.
Apparent permeability coefficients (Papp) of the compounds across the MDCK-MDR1 monolayers (MDCKII cells transfected with human MDR1 cDNA expression plasmid) are measured in apical-to-basal (AB) and basal-to-apical (BA) direction.
(§2) MDCK-MDR1 cells (6×10^5 cells/cm^2) are seeded on filter inserts (Corning, Transwell, polycarbonate, 0.4 μm pore size) and cultured for 9 to 10 days. Compounds dissolved in DMSO stock solution (1-20 mM) are diluted with HTP-4 aqueous buffer (128.13 mM NaCl, 5.36 mM KCl, 1 mM MgSO4, 1.8 mM CaCl2, 4.17 mM NaHCO3, 1.19 mM Na2HPO4, 0.41 mM NaH2PO4, 15 mM HEPES, 20 mM glucose, pH 7.4) supplemented with 0.25% BSA to prepare the transport solutions (final concentration: 1 or 10 μM, final DMSO <=0.5%). The transport solution is applied to the apical or basolateral donor side for measuring A-B or B-A permeability, respectively. The receiver side contains HTP-4 buffer supplemented with 0.25% BSA. Samples are collected at the start and end of experiment from the donor and at various time intervals for up to 2 hours also from the receiver side for concentration measurement by HPLC-MS/MS. Sampled receiver volumes are replaced with fresh receiver solution. Efflux ratio is calculated dividing the Papp (b-a) values by the Papp (a-b) values.

human BCRP = biological target: T2, human BCRP (Homo sapiens, UniProt Q9UNQ0); experiment: MDCK assay BCRP: permeability across MDCK-BCRP monolayers; assay type: in vitro ADME; conditions: for Papp A→B: MDCK-BCRP monolayers, apical-to-basal, pH 7.4, 1 or 10 μM; for efflux ratio: pH 7.4, MDCK-BCRP, Papp (b-a) divided by Papp (a-b)
T2 construct: expressed in transfected cells; host or cells: MDCKII (Madin-Darby canine kidney) cells
T2 sequence (Q9UNQ0 1-655): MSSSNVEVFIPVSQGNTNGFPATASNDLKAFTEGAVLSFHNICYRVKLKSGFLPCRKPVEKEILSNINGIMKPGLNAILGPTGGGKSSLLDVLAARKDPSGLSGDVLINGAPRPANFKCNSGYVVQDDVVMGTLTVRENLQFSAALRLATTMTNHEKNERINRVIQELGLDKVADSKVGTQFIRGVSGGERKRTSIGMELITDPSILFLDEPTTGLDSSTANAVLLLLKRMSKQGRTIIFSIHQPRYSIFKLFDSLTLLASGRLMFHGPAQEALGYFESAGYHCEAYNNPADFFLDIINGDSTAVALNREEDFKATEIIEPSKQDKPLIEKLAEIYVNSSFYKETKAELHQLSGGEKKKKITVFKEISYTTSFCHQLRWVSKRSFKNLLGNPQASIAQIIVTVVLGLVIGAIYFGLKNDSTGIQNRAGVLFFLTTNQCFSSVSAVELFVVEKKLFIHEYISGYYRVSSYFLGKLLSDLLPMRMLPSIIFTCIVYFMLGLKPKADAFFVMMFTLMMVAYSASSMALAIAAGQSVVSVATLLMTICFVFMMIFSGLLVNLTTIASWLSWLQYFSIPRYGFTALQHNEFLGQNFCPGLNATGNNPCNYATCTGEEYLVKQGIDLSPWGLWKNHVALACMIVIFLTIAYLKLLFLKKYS
Experimental: as §1
as §2, with “Apparent permeability coefficients (Papp) of the compounds across the MDCK-BCRP monolayers (MDCKII cells transfected with human BCRP cDNA expression plasmid) are measured in apical-to-basal (AB) and basal-to-apical (BA) direction. MDCK-BCRP” for “MDCK-MDR1”

| Papp A→B (human MDR1 (P-gp)) [×10⁻⁶ cm/s] | efflux ratio (human MDR1 (P-gp)) | Papp A→B (human BCRP) [×10⁻⁶ cm/s] | efflux ratio (human BCRP) | SMILES |
| --- | --- | --- | --- | --- |
| 61 | 0.9 | 38 | 2.4 | O=C(OCc1cccc(F)c1)N1CCO[C@H](c2nc3cccnc3[nH]2)C1 [Example 1] |
| 31.5 | 1.7 | 34 | 2.9 | O=C(OCc1ccc(F)cc1)N1CCO[C@H](c2nc3cccnc3[nH]2)C1 [Example 2] |
| 39 | 1.6 | 46 | 1.8 | Cc1ccccc1COC(=O)N1CCO[C@H](c2nc3cccnc3[nH]2)C1 [Example 8] |
| 37 | 1.6 | 40 | 2.2 | Cc1cccc(F)c1COC(=O)N1CCO[C@H](c2nc3cccnc3[nH]2)C1 [Example 10] |
| 32 | 1.4 | 63 | 1 | Cc1ccc(COC(=O)N2CCO[C@H](c3nc4cccnc4[nH]3)C2)c(F)c1 [Example 11] |
| 46 | 0.9 | 69 | 1 | Cc1ccc(COC(=O)N2CCO[C@H](c3nc4cccnc4[nH]3)C2)cc1F [Example 12] |
| 35 | 1.3 | 72 | 0.9 | O=C(OCc1ccc(F)cc1Cl)N1CCO[C@H](c2nc3cccnc3[nH]2)C1 [Example 13] |
| 38 | 1.1 | 68 | 1.2 | O=C(OCc1ccccc1Cl)N1CCO[C@H](c2nc3cccnc3[nH]2)C1 [Example 14] |
| 59 | 1.2 | 33 | 2.8 | O=C(OCc1cccc(F)c1F)N1CCO[C@H](c2nc3cccnc3[nH]2)C1 [Example 15] |
| 41 | 1.2 | 49 | 2.1 | O=C(OCc1c(F)cccc1F)N1CCO[C@H](c2nc3cccnc3[nH]2)C1 [Example 16] |
| 40 | 1.3 | 37 | 2.5 | O=C(OCc1ccccc1)N1CCO[C@H](c2nc3cccnc3[nH]2)C1 [Example 17] |
| 37 | 1.3 | 53 | 1.2 | Cc1ccc(COC(=O)N2CCO[C@H](c3nc4cccnc4[nH]3)C2)cc1 [Example 18] |
| 42 | 1.6 | 61 | 1.6 | O=C(OCc1ccc(F)cc1F)N1CCO[C@H](c2nc3cccnc3[nH]2)C1 [Example 19] |
| 32 | 2 | 24 | 2.7 | O=C(OCc1ccc(C(F)F)cc1)N1CCO[C@H](c2nc3cccnc3[nH]2)C1 [Example 26] |
| 65 | 1.2 | 24 | 5.2 | O=C(OCc1ccccc1F)N1CCO[C@H](c2nc3cccnc3[nH]2)C1 [Example 27] |
| 42 | 1.1 | 56 | 1.2 | O=C(OCc1ccc(Cl)cc1)N1CCO[C@H](c2nc3cccnc3[nH]2)C1 [Example 28] |
| 18 | 1.8 | 85 | 0.7 | Cc1ccc(COC(=O)N2CCO[C@H](c3nc4cc(F)cnc4[nH]3)C2)cc1 [Example 31] |
